Results published in US4410516A, “1-N(αHydroxy-ω-aminoalkanoyl) derivatives of 5,3',4'-trideoxy- or 5,3', 4'-trideoxy-6'-N- methyl- or 5, 3', 4',6"-tetradeoxykannamyci B and production thereof” (Zaidan Hojin Biseibutsu Kagaku Kenkyu Kai, priority 1981, dated 1983).
Converted amounts (≈) assume the structure as drawn. Where two headings read alike, the source gives them in different places.

Assays:
Type in all cases: cell-based
Bacillus anthracis = assay: microbe, parasite or virus in culture; settings: 18 h
[1] = tested on: Pseudomonas aeruginosa H11; assay: Minimum inhibitory concentration, serial dilution on nutrient agar
[2] = tested on: Escherichia coli K-12 R 388; assay: as above; settings: K12R388, 18 h
[3] = tested on: Pseudomonas aeruginosa B-13; assay: as above; settings: B13, 37° C., 18 hours incubation
Providencia 2991 = assay: as above; settings: 37° C., 18 hours incubation
[4] = tested on: Pseudomonas aeruginosa No. 12; assay: as above; settings: NO.12, nutrient agar, 37° C., 18 hours incubation, read-out: MIC
Shigella sonnei JS11746 = assay: as above; settings: 37° C., 18 hours incubation
Source text: (§1) The minimum inhibitory concentration (mcg/ml) of 1-N-[(S)-4-amino-2-hydroxybutyryl]-5,3',4'-trideoxykanamycin B (abbreviated as AHB-trideoxyKMB), 1-N-[(RS)-3-amino-2-hydroxypropionyl]-5,3',4'-trideoxykanamycin B (abbreviated as AHP-trideoxy-KMB) and 1-N-[(S)-4-amino-2-hydroxybutyryl]-5,3',4',6"-tetradeoxykanamycin B (abbreviated as AHB-tetradeoxyKMB) of the formula (II) according to this invention as well as of the new compound 5,3',4',6"-tetradeoxykanamycin B (abbreviated as tetradeoxyKMB) of the formula (III) according to this invention against various microorganisms were determined according to serial dilution method on a nutrient agar medium at 37° C., the estimation being made after 18 hours incubation. For comparison purpose, the minimum inhibitory concentrations of habekacin were also determined in the same manner as stated above.
(§2) The minimum inhibitory concentrations (mcg/ml) of 1-N-[(S)-4-amino-2-hydroxybutyryl]-5,3',4'-trideoxy-6'-N-methylkanamycin B (abbreviated as AHB-trideoxyMKMB), 1-N-[(RS)-3-amino-2-hydroxypropionyl]-5,3',4'-trideoxy-6'-N-methylkanamycin B (abbreviated as AHP-trideoxyMKMB) and 1-N-[(S)-5-amino-2-hydroxyvaleryl]-5,3',4'-trideoxy-6'-N-methylkanamycin B (abbreviated as AHV-trideoxyMKMB) of the formula (IV) according to this invention as well as of the new compound 5,3',4'-trideoxy-6'-N-methylkanamycin B (abbreviated as trideoxyMKMB) of the formula (V) according to this invention against various microorganisms were determined according to serial dilution method on a nutrient agar medium at 37° C., the estimation being made after 18 hours incubation. For comparison purpose, the minimum inhibitory concentrations of 1-N-[(S)-4-amino-2-hydroxybutyryl]-3',4'-dideoxykanamycin B (ie. habekacin) were also determined in the same manner as stated above.

[5] = tested on: Escherichia coli K-12 ML 1630; assay: as above; settings: K12ML1630, 37° C., 18 hours incubation
Source text: as §1, §2

[6] = tested on: Bacillus cereus ATCC 10702; assay: as above
[7] = tested on: Mycobacterium smegmatis ATCC 607; assay: as above; settings: Mycolicibacterium smegmatis
Escherichia coli W677 = assay: as above; settings: W677, nutrient agar, 37° C., 18 hours incubation, read-out: MIC
[8] = tested on: Pseudomonas maltophilia GN907; assay: as above; settings: Stenotrophomonas maltophilia, 37° C., 18 hours incubation
Proteus rettgeri GN311 = assay: as above; settings: Providencia rettgeri, 37° C., 18 hours incubation
[9] = tested on: Salmonella enteritidis 1891; assay: as above; settings: Salmonella enterica
Escherichia coli NIHJ = assay: as above; settings: nutrient agar, 37° C., 18 hours incubation, read-out: MIC
[10] = tested on: Pseudomonas aeruginosa A3; assay: as above; settings: 37° C., 18 hours incubation
[11] = tested on: Bacillus subtilis NRRL B-558; assay: as above; settings: NRRLB558, 37° C., 18 hours incubation
Escherichia coli K-12 = assay: as above; settings: K12, nutrient agar, 37° C., 18 hours incubation, read-out: MIC
[12] = tested on: Staphylococcus aureus AP01; assay: as above; settings: 37° C., 18 hours incubation
[13] = tested on: Staphylococcus epidermidis 109; assay: as above
Serratia 4 = assay: as above; settings: 37° C., 18 hours incubation
[14] = tested on: Micrococcus flavus FDA 16; assay: as above
[15] = tested on: Pseudomonas aeruginosa K-Ps102; assay: as above
Proteus vulgaris OX19 = assay: as above; settings: 37° C., 18 hours incubation
[16] = tested on: Pseudomonas aeruginosa 21-75; assay: as above; settings: 2175, 37° C., 18 hours incubation
Escherichia coli JR255 = assay: as above; settings: JR255, nutrient agar, 37° C., 18 hours incubation, read-out: MIC
[17] = tested on: Pseudomonas aeruginosa H9; assay: as above
[18] = tested on: Pseudomonas aeruginosa 99; assay: as above
Escherichia coli K-12 R5 = assay: as above; settings: K12R5, 18 h
[19] = tested on: Pseudomonas aeruginosa PST1; assay: as above; settings: PST1, nutrient agar, 37° C., 18 hours incubation, read-out: MIC
[20] = tested on: Pseudomonas aeruginosa GN315; assay: as above
[21] = H11, nutrient agar, 37° C., 18 hours incubation, read-out: MIC
[22] = ATCC10702, nutrient agar, 37° C., 18 hours incubation, read-out: MIC
[23] = ATCC607, nutrient agar, 37° C., 18 hours incubation, read-out: MIC
[24] = nutrient agar, 37° C., 18 hours incubation, read-out: MIC
[25] = Staphylococcus epidermidis, 109, nutrient agar, 37° C., 18 hours incubation, read-out: MIC
[26] = FDA16, nutrient agar, 37° C., 18 hours incubation, read-out: MIC
[27] = H9, nutrient agar, 37° C., 18 hours incubation, read-out: MIC
[28] = Pseudomonas aeruginosa, 99, nutrient agar, 37° C., 18 hours incubation, read-out: MIC
[29] = GN315, nutrient agar, 37° C., 18 hours incubation, read-out: MIC
[30] = KPS102, nutrient agar, 37° C., 18 hours incubation, read-out: MIC

Compound	MIC (Bacillus anthracis) [µg/mL]	MIC [2] [µg/mL]	MIC [3] [µg/mL]	MIC (Providencia 2991) [µg/mL]	MIC [4] [µg/mL]	MIC (Shigella sonnei JS11746) [µg/mL]	MIC [5] [µg/mL]	MIC (Escherichia coli W677) [µg/mL]	MIC [8] [µg/mL]	MIC (Proteus rettgeri GN311) [µg/mL]	MIC (Escherichia coli NIHJ) [µg/mL]	MIC [10] [µg/mL]	MIC [11] [µg/mL]	MIC (Escherichia coli K-12) [µg/mL]	MIC [12] [µg/mL]	MIC (Serratia 4) [µg/mL]	MIC (Proteus vulgaris OX19) [µg/mL]	MIC [16] [µg/mL]	MIC (Escherichia coli JR255) [µg/mL]	MIC (Escherichia coli K-12 R5) [µg/mL]	also measured
C[C@H]1O[C@H](O[C@@H]2C[C@H](O[C@H]3O[C@H](CN)CC[C@H]3N)[C@@H](N)C[C@H]2N)[C@H](O)[C@@H](N)[C@@H]1O [TetradeoxyKMB, 5,3',4',6"-tetradeoxykanamycin B]	0.39 (≈ 0.93 µM)	3.13 (≈ 7.46 µM)	50 (≈ 119 µM)	> 100	25 (≈ 59.6 µM)	12.5 (≈ 29.8 µM)	12.5 (≈ 29.8 µM)	6.25 (≈ 14.9 µM)	> 100	> 100	6.25 (≈ 14.9 µM)	3.13 (≈ 7.46 µM)	< 0.2	25 (≈ 59.6 µM)	6.25 (≈ 14.9 µM)	50 (≈ 119 µM)	1.56 (≈ 3.72 µM)	> 100	25 (≈ 59.6 µM)	> 100	MIC [1, 21]: 25 µg/mL (≈ 59.6 µM); MIC [6, 22]: 3.13 µg/mL (≈ 7.46 µM); MIC [7, 23]: 0.78 µg/mL (≈ 1.86 µM); MIC [9, 24]: 25 µg/mL (≈ 59.6 µM); MIC [13, 25]: 6.25 µg/mL (≈ 14.9 µM); MIC [14, 26]: 50 µg/mL (≈ 119 µM); MIC ([15]; KPS102, 18 h): 12.5 µg/mL (≈ 29.8 µM); MIC [17, 27]: 100 µg/mL (≈ 238 µM); MIC [18, 28]: 25 µg/mL (≈ 59.6 µM); MIC [19]: > 100 µg/mL; MIC [20, 29]: > 100 µg/mL
CNC[C@@H]1CC[C@@H](N)[C@@H](O[C@H]2C[C@@H](O[C@H]3O[C@H](CO)[C@@H](O)[C@H](N)[C@H]3O)[C@H](N)C[C@@H]2N)O1 [TrideoxyMKMB, 5,3',4'-trideoxy-6'-N-methylkanamycin B]	0.78 (≈ 1.74 µM)	12.5 (≈ 27.8 µM)	100 (≈ 222 µM)	> 100	25 (≈ 55.6 µM)	25 (≈ 55.6 µM)	25 (≈ 55.6 µM)	12.5 (≈ 27.8 µM)	> 100	100 (≈ 222 µM)	12.5 (≈ 27.8 µM)	3.13 (≈ 6.96 µM)	0.78 (≈ 1.74 µM)	12.5 (≈ 27.8 µM)	25 (≈ 55.6 µM)	50 (≈ 111 µM)	3.13 (≈ 6.96 µM)	> 100	100 (≈ 222 µM)	50 (≈ 111 µM)	MIC [1, 21]: 25 µg/mL (≈ 55.6 µM); MIC [6, 22]: 12.5 µg/mL (≈ 27.8 µM); MIC ([7]; ATCC607, 18 h): 6.25 µg/mL (≈ 13.9 µM); MIC [9, 24]: 25 µg/mL (≈ 55.6 µM); MIC ([13]; Staphylococcus epidermidis, 109, 18 h): 6.25 µg/mL (≈ 13.9 µM); MIC [14, 26]: 100 µg/mL (≈ 222 µM); MIC [15, 30]: 25 µg/mL (≈ 55.6 µM); MIC [17, 27]: 25 µg/mL (≈ 55.6 µM); MIC [18, 28]: 50 µg/mL (≈ 111 µM); MIC [19]: > 100 µg/mL; MIC [20, 29]: 25 µg/mL (≈ 55.6 µM)
C[C@H]1O[C@H](O[C@@H]2C[C@H](O[C@H]3O[C@H](CN)CC[C@H]3N)[C@@H](N)C[C@H]2NC(=O)[C@@H](O)CCN)[C@H](O)[C@@H](N)[C@@H]1O [AHB-tetradeoxyKMB, 1-N-[(S)-4-amino-2-hydroxybutyryl]-5,3',4',6"-tetradeoxykanamycin B]	< 0.2	0.39 (≈ 0.749 µM)	12.5 (≈ 24 µM)	25 (≈ 48 µM)	6.25 (≈ 12 µM)	3.13 (≈ 6.01 µM)	1.56 (≈ 3 µM)	0.78 (≈ 1.5 µM)	> 100	25 (≈ 48 µM)	0.78 (≈ 1.5 µM)	0.78 (≈ 1.5 µM)	< 0.2	0.78 (≈ 1.5 µM)	0.78 (≈ 1.5 µM)	25 (≈ 48 µM)	0.39 (≈ 0.749 µM)	12.5 (≈ 24 µM)	0.78 (≈ 1.5 µM)	50 (≈ 96 µM)	MIC [1, 21]: 12.5 µg/mL (≈ 24 µM); MIC [6, 22]: 0.39 µg/mL (≈ 0.749 µM); MIC [7, 23]: < 0.2 µg/mL; MIC ([9]; 18 h): 3.13 µg/mL (≈ 6.01 µM); MIC [13, 25]: 0.78 µg/mL (≈ 1.5 µM); MIC [14, 26]: 6.25 µg/mL (≈ 12 µM); MIC ([15]; KPS102, 18 h): 3.13 µg/mL (≈ 6.01 µM); MIC ([17]; H9, 18 h): 3.13 µg/mL (≈ 6.01 µM); MIC [18, 28]: 6.25 µg/mL (≈ 12 µM); MIC [19]: 6.25 µg/mL (≈ 12 µM); MIC [20, 29]: 100 µg/mL (≈ 192 µM)
NCC[C@H](O)C(=O)N[C@@H]1C[C@H](N)[C@@H](O[C@H]2O[C@H](CN)CC[C@H]2N)[C@H](O)[C@H]1O[C@H]1O[C@H](CO)[C@@H](O)[C@H](N)[C@H]1O [Habekacin, 1-N-[(S)-4-amino-2-hydroxybutyryl]-3',4'-dideoxykanamycin B, reference compound]	< 0.2	1.56 (≈ 2.82 µM)	25 (≈ 45.2 µM)	50 (≈ 90.5 µM)	3.13 (≈ 5.66 µM)	6.25 (≈ 11.3 µM)	3.13 (≈ 5.66 µM)	3.13 (≈ 5.66 µM)	> 100	50 (≈ 90.5 µM)	3.13 (≈ 5.66 µM)	3.13 (≈ 5.66 µM)	< 0.2	3.13 (≈ 5.66 µM)	0.78 (≈ 1.41 µM)	50 (≈ 90.5 µM)	0.78 (≈ 1.41 µM)	25 (≈ 45.2 µM)	3.13 (≈ 5.66 µM)	100 (≈ 181 µM)	MIC ([1]; H11, 18 h): 12.5 µg/mL (≈ 22.6 µM); MIC ([6]; ATCC10702, 18 h): 1.56 µg/mL (≈ 2.82 µM); MIC [7, 23]: 0.39 µg/mL (≈ 0.706 µM); MIC [9, 24]: 3.13 µg/mL (≈ 5.66 µM); MIC [13, 25]: 0.78 µg/mL (≈ 1.41 µM); MIC ([14]; FDA16, 18 h): 1.56 µg/mL (≈ 2.82 µM); MIC [15, 30]: 3.13 µg/mL (≈ 5.66 µM); MIC ([17]; H9, 18 h): 6.25 µg/mL (≈ 11.3 µM); MIC ([18]; Pseudomonas aeruginosa, 99, 18 h): 6.25 µg/mL (≈ 11.3 µM); MIC [19]: 25 µg/mL (≈ 45.2 µM); MIC ([20]; GN315, 18 h): 6.25 µg/mL (≈ 11.3 µM)
